According to patent US9254291B2, “Modulators of ATP-binding cassette transporters” (VERTEX PHARMACEUTICALS INCORPORATED, priority 2011, dated 2016):

Molecular target: T1, ΔF508-CFTR (Homo sapiens, UniProt P13569, DEL508-508)
T1 construct: expressed in transfected cells
Assay: Membrane potential optical assay for ΔF508-CFTR correction properties of compounds
Format: cell-based
Conditions: ΔF508-CFTR in NIH3T3 mouse fibroblasts; test behind Table 2 not named
Excerpt: Assays for Detecting and Measuring ΔF508-CFTR Correction Properties of Compounds
Membrane potential optical methods for assaying ΔF508-CFTR modulation properties of compounds.
The assay utilizes fluorescent voltage sensing dyes to measure changes in membrane potential using a fluorescent plate reader (e.g., FLIPR III, Molecular Devices, Inc.) as a readout for increase in functional ΔF508-CFTR in NIH 3T3 cells. The driving force for the response is the creation of a chloride ion gradient in conjunction with channel activation by a single liquid addition step after the cells have previously been treated with compounds and subsequently loaded with a voltage sensing dye.
Identification of Correction Compounds
To identify small molecules that correct the trafficking defect associated with ΔF508-CFTR; a single-addition HTS assay format was developed. […] Cells are then ready for compound exposure after adhering to the bottom of the assay plates.
The cells were incubated in serum-free medium for 16-24 hrs in tissue culture incubator at 37° C., 5% CO2, 90% humidity in the presence or absence (negative control) of test compound. […] The addition of Cl^−-free medium promoted Cl^− efflux in response to ΔF508-CFTR activation and the resulting membrane depolarization was optically monitored using voltage sensor dyes. […]

T1 sequence (P13569 with tags, fused parts or gaps DEL508-508): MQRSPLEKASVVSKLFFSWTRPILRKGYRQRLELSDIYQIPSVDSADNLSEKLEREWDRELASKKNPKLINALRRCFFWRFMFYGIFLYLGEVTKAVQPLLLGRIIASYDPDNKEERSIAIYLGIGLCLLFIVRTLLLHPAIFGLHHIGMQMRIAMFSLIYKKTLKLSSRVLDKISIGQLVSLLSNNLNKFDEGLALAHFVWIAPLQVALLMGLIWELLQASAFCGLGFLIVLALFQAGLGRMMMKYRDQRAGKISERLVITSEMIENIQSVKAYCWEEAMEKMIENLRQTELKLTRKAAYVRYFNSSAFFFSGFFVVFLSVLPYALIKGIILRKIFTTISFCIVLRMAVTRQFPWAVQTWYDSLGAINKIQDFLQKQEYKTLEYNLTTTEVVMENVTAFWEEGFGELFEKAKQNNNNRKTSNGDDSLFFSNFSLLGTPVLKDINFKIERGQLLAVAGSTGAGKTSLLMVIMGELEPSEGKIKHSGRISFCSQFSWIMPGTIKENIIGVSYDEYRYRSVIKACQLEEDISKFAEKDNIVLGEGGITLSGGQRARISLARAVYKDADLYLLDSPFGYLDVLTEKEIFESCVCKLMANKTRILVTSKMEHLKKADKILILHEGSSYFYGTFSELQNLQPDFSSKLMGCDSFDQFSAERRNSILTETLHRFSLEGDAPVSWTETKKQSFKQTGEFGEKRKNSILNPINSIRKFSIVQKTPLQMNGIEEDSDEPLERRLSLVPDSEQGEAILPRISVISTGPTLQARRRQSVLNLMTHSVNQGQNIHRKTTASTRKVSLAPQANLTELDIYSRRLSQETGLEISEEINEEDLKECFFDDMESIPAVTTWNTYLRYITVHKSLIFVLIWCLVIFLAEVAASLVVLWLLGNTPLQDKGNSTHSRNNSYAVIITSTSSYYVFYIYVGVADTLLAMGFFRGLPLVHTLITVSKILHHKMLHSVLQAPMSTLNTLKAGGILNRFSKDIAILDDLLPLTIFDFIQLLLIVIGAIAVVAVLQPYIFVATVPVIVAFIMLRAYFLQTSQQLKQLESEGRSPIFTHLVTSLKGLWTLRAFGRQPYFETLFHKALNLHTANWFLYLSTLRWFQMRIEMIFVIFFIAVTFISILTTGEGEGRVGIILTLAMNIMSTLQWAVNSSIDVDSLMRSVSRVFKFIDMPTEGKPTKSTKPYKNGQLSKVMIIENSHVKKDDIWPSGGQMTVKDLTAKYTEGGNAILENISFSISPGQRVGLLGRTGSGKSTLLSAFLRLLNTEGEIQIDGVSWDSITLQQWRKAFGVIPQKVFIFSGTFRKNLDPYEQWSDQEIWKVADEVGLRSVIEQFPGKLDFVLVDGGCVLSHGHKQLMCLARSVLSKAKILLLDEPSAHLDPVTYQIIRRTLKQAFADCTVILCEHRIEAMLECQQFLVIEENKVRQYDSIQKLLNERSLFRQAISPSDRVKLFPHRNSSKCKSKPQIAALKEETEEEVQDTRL

CC1(C)c2cc3cc(NC(=O)C4(c5ccc6c(c5)OC(F)(F)O6)CC4)c(F)cc3n2C[C@H](CO)OC1O (stereo partly drawn) [1-(2,2-difluorobenzo[d][1,3]dioxol-5-yl)-N-((4R)-8-fluoro-2-hydroxy-4-(hydroxymethyl)-1,1-dimethyl-1,2,4,5-tetrahydro-[1,4]oxazepino[4,5-a]indol-9-yl)cyclopropanecarboxamide]
EC50: < 2 µM
